Assay results taken from publication PMC5672791 (Journal of medicinal chemistry, 2015).
pEC50, pIC50, pKi: −log10 of the molar value. “Also recorded” adds a separate entry of the source. Where a SMILES comes first, the peptide text is derived from it. [ ]: non-standard residue; d: D form.

What was measured:
mMC3R [1] = biological target: T1, mMC3R (Mus musculus, UniProt P33033); type: cell-based
mMC4R = mMC4R (Mus musculus, UniProt P56450); type: cell-based
mMC5R = mMC5R (Mus musculus, UniProt P41149); assay: cAMP based β-galactosidase reporter assay, agonist activity at mMC5R; type: cell-based; details: read-out: mMC5R Agonist EC50; HEK-293 cells, CRE/β-galactosidase reporter; mean ± SEM
mMC5R, sequence (P41149 whole entry): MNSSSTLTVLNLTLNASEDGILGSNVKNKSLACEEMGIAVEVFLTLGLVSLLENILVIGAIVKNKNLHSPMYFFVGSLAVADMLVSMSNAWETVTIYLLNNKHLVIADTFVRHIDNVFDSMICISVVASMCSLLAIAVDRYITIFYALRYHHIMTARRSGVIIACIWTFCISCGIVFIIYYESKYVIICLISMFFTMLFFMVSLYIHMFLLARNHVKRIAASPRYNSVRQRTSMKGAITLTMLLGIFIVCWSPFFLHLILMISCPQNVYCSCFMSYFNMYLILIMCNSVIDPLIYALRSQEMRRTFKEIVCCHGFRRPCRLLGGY

mMC3R [2] = biological target: T1, mMC3R; assay: cAMP based β-galactosidase reporter assay; type: cell-based; details: Figure 1
mMC4R F176K = details: mutation F176K; cited from earlier work
[3] = tested on: mMC4R mutations (E92K, F253S); details: cited from earlier work
hMC3R = details: cited from earlier work
hMC4R = details: cited from earlier work
MC4R = details: cited from earlier work
[4] = Schild analysis, agonist MTII, mean ± SEM

mMC4R, sequence (P56450 whole entry): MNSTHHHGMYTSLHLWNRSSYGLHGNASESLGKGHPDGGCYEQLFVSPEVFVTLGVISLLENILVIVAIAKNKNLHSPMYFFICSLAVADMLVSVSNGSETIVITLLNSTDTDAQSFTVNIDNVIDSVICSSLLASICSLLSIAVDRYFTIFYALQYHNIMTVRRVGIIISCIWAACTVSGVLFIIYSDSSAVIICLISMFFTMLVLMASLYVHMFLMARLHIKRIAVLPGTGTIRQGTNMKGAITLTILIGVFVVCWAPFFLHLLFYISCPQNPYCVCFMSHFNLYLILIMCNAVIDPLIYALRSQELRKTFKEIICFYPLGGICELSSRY
T1 sequence (P33033 whole entry): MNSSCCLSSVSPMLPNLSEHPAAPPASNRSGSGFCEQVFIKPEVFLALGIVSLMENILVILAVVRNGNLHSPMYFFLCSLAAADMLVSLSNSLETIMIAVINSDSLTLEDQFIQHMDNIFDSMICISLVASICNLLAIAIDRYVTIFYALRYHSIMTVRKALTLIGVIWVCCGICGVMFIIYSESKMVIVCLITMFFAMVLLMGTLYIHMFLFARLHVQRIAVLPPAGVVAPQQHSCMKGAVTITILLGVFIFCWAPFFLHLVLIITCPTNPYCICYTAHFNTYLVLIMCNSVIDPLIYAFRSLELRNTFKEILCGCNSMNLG

Compound: C[C@@H]1NC(=O)[C@H](Cc2ccccc2)NC(=O)[C@H](C)NC(=O)[C@H](CC(N)=O)NC(=O)[C@H](Cc2ccccc2)NC(=O)[C@H](Cc2ccccc2)NC(=O)[C@H](CCCNC(=N)N)NC(=O)[C@H](C)NC(=O)[C@H](Cc2ccc(O)cc2)NC(=O)[C@@H]2CCCN2C(=O)[C@H]2CCCN2C(=O)[C@H](Cc2ccc(O)cc2)NC1=O [Peptide 4]
- no activity at the mMC3R up to (concentration) (mMC3R [1]): > 100 µM
- mMC3R antagonist pA2 (mMC3R [1]; [4]): >100,000
- no activity at the mMC4R up to (concentration) (mMC4R): > 100 µM
- mMC4R antagonist pA2 (mMC4R; [4]): >100,000
- pEC50 (mMC5R): < 4.00

Compound: C[C@@H]1NC(=O)[C@H](CC(N)=O)NC(=O)[C@H](Cc2ccccc2)NC(=O)[C@H](Cc2ccccc2)NC(=O)[C@H](CCCNC(=N)N)NC(=O)[C@H]([C@@H](C)O)NC(=O)[C@H](Cc2ccc(O)cc2)NC(=O)[C@@H]2CCCN2C(=O)[C@H]2CCCN2C(=O)[C@H](Cc2ccc(O)cc2)NC(=O)[C@H]([C@@H](C)O)NC(=O)[C@H](Cc2ccccc2)NC1=O [Peptide 5] (cyclo(YTRFFNAFTY[dP]P))
- pKi (mMC4R): 6.80
- pEC50 (mMC5R): < 4.00

Compound: C[C@@H]1NC(=O)[C@H](CC(N)=O)NC(=O)[C@H](Cc2ccccc2)NC(=O)[C@H](Cc2ccccc2)NC(=O)[C@H](CCCNC(=N)N)NC(=O)[C@@H]2CCCN2C(=O)[C@H]2CCCN2C(=O)[C@H](Cc2ccccc2)NC1=O [Peptide 6, c[Pro-Arg-Phe-Phe-Asn-Ala-Phe-DPro]]
- partial agonist activity at the mMC3R (mMC3R [2]): lack of agonist activity; also recorded: without any partial agonist activity

Compound: C[C@@H]1NC(=O)[C@H](CN)NC(=O)[C@H](Cc2ccccc2)NC(=O)[C@H](Cc2ccccc2)NC(=O)[C@H](CCCNC(=N)N)NC(=O)[C@@H]2CCCN2C(=O)[C@H]2CCCN2C(=O)[C@H](Cc2ccccc2)NC1=O [Peptide 22, c[Pro-Arg-Phe-Phe-Dap-Ala-Phe-DPro]]
- partial agonist activity at the mMC3R (mMC3R [2]): did not result in partial agonist activity

Compound: AGRP(83-132): C-terminal AGRP(83-132) peptide (SSRRCVRLHESCLGQQVPCCDPCATCYCRFFNAFCYCRKLGTAMNPCSRT; UniProt O00253 83-132, looked up, fragment)
- loss of antagonist potency at mMC4R F176K (mMC4R F176K): complete loss of activity
- binding to mMC4R mutations E92K, F253S [3]: unable to bind

Compound: Ac-c[Cys-Arg-Phe-Phe-Asn-Ala-Phe-Cys]-NH2 [AGRP(110-117)]
- binding affinity at the hMC3R (hMC3R): no detectable binding
- fold lower hMC4R binding affinity than AGRP(83-132) (hMC4R; compared to C-terminal AGRP(83-132)): approximately 36 fold
- pIC50 (hMC4R; read-out: IC50 binding affinity at the hMC4R): 6.90

Compound: HS024
- selectivity for the MC4R compared to the MC3R (MC4R): approximately 20 fold
